Results on one cell line are retold here after the supplement of paper PMC10307832.

Test in all cases: relative viability (nuclei count vs DMSO), 5 days (fraction); higher = more cells survive
Compound in test [1]: C1CC1C(=O)NC2=NNC3=C2C=CC(=C3)C4=CC(=CC=C4)C(=O)NC5CC5 [XMD13-2] + CCNC(=O)c1noc(-c2cc(C(C)C)c(O)cc2O)c1-c1ccc(CN2CCOCC2)cc1 [Luminespib] (partner 0.01 µM)
Summed up:
(§1)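 Lung cancer cell lines, seeded in 1536-well plates, were treated the following day by pin tool with a single drug or with five library-drug doses (not always all listed) in √10 steps on top of a fixed anchor-drug dose. Cells were fixed and nuclei stained in one step after 5 days, and nuclei were counted. Relative viability is the nuclei count for treated wells divided by that for vehicle wells, reported as medians of duplicate plates.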

Compound in test [2]: C1CC1C(=O)NC2=NNC3=C2C=CC(=C3)C4=CC(=CC=C4)C(=O)NC5CC5 [XMD13-2] + CC(=O)c1c(C)c2cnc(Nc3ccc(N4CCNCC4)cn3)nc2n(C2CCCC2)c1=O [Palbociclib] (partner 0.5 µM)
The procedure, abridged: as §1

Compound in test [3]: Cc1nc(Nc2ncc(C(=O)Nc3c(C)cccc3Cl)s2)cc(N2CCN(CCO)CC2)n1 [Dasatinib] + CCNC(=O)c1noc(-c2cc(C(C)C)c(O)cc2O)c1-c1ccc(CN2CCOCC2)cc1 [Luminespib] (partner 0.01 µM)
Summed up:
as §1

Compound in test [4]: Cc1ccc(C(=O)Nc2cccc(C(F)(F)F)c2)cc1Nc1cncc(C(N)=O)c1 [ALW-II-49-7] + CC(=O)Nc1cccc(-n2c(=O)n(C3CC3)c(=O)c3c(Nc4ccc(I)cc4F)n(C)c(=O)c(C)c32)c1 [Trametinib] (partner 0.02 µM)
The procedure, abridged: as §1

Turning to UMC-11, the relative viability in test [1] (first compound 0.05 µM) came to 1.11; in test [1] (first compound 0.1581 µM), 1.02; in test [1] (first compound 0.5 µM), 0.992; in test [1] (first compound 1.581 µM) it was 0.961; in test [1] (first compound 5 µM) it was 0.974; in test [2] (first compound 0.05 µM) it was 0.356. Moreover, the relative viability in test [2] (first compound 0.1581 µM) came out at 0.313; in test [2] (first compound 0.5 µM), 0.349; in test [2] (first compound 1.581 µM), 0.33; in test [2] (first compound 5 µM), 0.334; in test [3] (first compound 0.005 µM), 0.874; in test [3] (first compound 0.01581 µM), 0.78. In addition, the relative viability in test [3] (first compound 0.05 µM) stood at 0.607; in test [3] (first compound 0.1581 µM), 0.316; in test [3] (first compound 0.5 µM), 0.328; in test [4] (first compound 0.08 µM), 0.791; in test [4] (first compound 0.253 µM), 0.69; in test [4] (first compound 0.8 µM), 0.896. In addition, the relative viability worked out at 0.821 in test [4] (first compound 2.53 µM) and 0.599 in test [4] (first compound 8 µM).
